Experiments:
IL-8 = experiment: TNFα-stimulated IL-8 production in primary bronchial epithelial cells from COPD; type: cell-based; details: Homo sapiens, Epithelial cell
Experimental: (§1) Primary airway epithelial cells obtained from patients with COPD were purchased from Asterand (Royston, UK), and maintained in bronchial epithelial cell growth media that was prepared by mixing together LHC8 (lnvitrogen) (500 mL), with LHC9 (Invitrogen) (500 mL) and 3 μL of retinoic acid solution (5 mg/mL in neat DMSO. The media was removed by aspiration and fresh BEGM (200 μL) was added to each well. Where appropriate, 1 μL of a solution of the test compound at the state concentrations or 1 μL of DMSO as the vehicle control was added and the cells were incubated for 2 hr. The cells were stimulated with TNFα (50 μL; final concentration 50 ng/mL) and then incubated for 4 hr at 37° C. and 5% CO2. The supernatant was then collected and kept at −20° C.
(§2) The levels of IL-6 and IL-8 were determined by ELISA using R&D Systems' Human IL-6 and IL-8 Duoset® Elisa Kits. The inhibition of IL-6 and IL-8 production was calculated at each concentration by comparison with vehicle control.

IL-6 = experiment: TNFα-stimulated IL-6 production in primary bronchial epithelial cells from COPD; type: cell-based; details: Homo sapiens, Epithelial cell
Experimental: as §1, §2

CXCL1 (KC) = experiment: Cigarette smoke model: CXCL1 (KC) in BALF; type: in vivo, mouse; details: mice
Experimental: A/J mice (males, 5 weeks old) were exposed to cigarette smoke (4% cigarette smoke, diluted with air) for 30 min/day for 11 days using a Tobacco Smoke Inhalation Experiment System for small animals (Model SIS-CS; Sibata Scientific Technology, Tokyo, Japan). Test substances were administered intra-nasally (35 μL of solution in 50% DMSO/PBS) once daily for 3 days after the final cigarette smoke exposure. At 12 hr after the last dosing, each of the animals was anesthetized, the trachea cannulated and bronchoalveolar lavage fluid (BALF) was collected. The numbers of alveolar macrophages and neutrophils were determined by FACS analysis (EPICS® ALTRA II, Beckman Coulter, Inc., Fullerton, Calif., USA) using anti-mouse MOMA2 antibody (macrophage) or anti-mouse 7/4 antibody (neutrophil). BALF was centrifuged and the supernatant was collected. The level of keratinocyte chemoattractant (KC; CXCL1) in BALF was quantitated using a Quentikine® mouse KC ELISA kit (R&D systems, Inc., Minneapolis, Minn., USA).

TNFα = experiment: LPS-stimulated TNFα production in sputum macrophages from COPD; type: cell-based; details: Homo sapiens, Macrophage
Experimental: (§3) Patients with COPD were inhaled with a nebulised solution of 3% (w/v) hypertonic saline using an ultrasonic nebuliser (Devilbiss, Carthage, Mo.) with tidal breathing for 5 min. This procedure was repeated a maximum of three times until enough sputum was obtained. The sputum samples were homogenized and mixed vigorously using a vortex mixer in 0.02% v/v dithiothreitol (DTT) solution. The samples were re-suspended in PBS (40 mL) followed by centrifugation at 1500 rpm at 4° C. for 10 min to obtain sputum cell pellets. The pellets were washed twice with PBS (40 mL). The sputum cells were then re-suspended in macrophage serum-free medium (macrophage-SFM, Life technologies, Paisley, UK; to achieve 2×10^6/well in a 24 well plate) containing 20 U/mL penicillin, 0.02 mg/mL streptomycin and 5 μg/mL amphotericin B and seeded on high bound 96-well plate, followed by incubation for 2 hr at 37° C. and at 5% CO2 to allow the macrophages to attach to the bottom of the plate. The cells on the plate were washed with fresh macrophage-SFM (200 μL/well) to remove neutrophils and other contaminated cells. The adherent cells (mainly sputum macrophages) on the plate were used for further analysis. Sputum induction and isolation were conducted in Quintiles Drug Research Unit at Guys Hospital and ethics approval and written informed consent was obtained by Quintiles.
(§4) Where appropriate, 1 μL of a solution containing either the test compound or reference article at the stated concentrations or alternatively 1 μL of DMSO as the vehicle control was added to each well (200 μL in media) and the cells were incubated for 2 hr. […] After washing with 200 uL wash buffer per well, the beads were resuspended in sheath fluid (150 μL) and analyzed immediately. The level of each analyte in the supernatant was calculated using Xcel Fit software with a 4 or 5-parameter equation using each standard curve. The inhibitions of each cytokine production were calculated at each concentration by comparison with vehicle control. The IC50 values were determined from concentration-inhibition curves using XL-Fit (idbs, Guildford, UK)

MIP1α = experiment: LPS-stimulated MIP1α production in sputum macrophages from COPD; type: cell-based; details: Homo sapiens, Macrophage
Experimental: as §3, §4

Cc1ccc(-n2nc(C(C)(C)C)cc2NC(=O)Nc2ccc(Oc3ccnc(Nc4ccccc4)n3)c3ccccc23)cc1 [Example 1, 1-(3-(tert-Butyl)-1-(p-tolyl)-1H-pyrazol-5-yl)-3-(4-(2-(phenylamino)pyrimidin-4-yloxy)naphthalen-1-yl)urea]
IC50 (IL-8; COPD patients, TNFα stimulated): 0.85 nM
Emax at 0.1 µg/mL (IL-8; read-out: IL-8 E max, bronchial epithelial cell): 100%
IC50 (IL-6; COPD patients, TNFα stimulated): 1.7 nM
Emax at 0.1 µg/mL (IL-6; read-out: IL-6 E max, bronchial epithelial cell): 100%
cigarette smoke induced CXCL1 (KC) production in BALF, effect in words (CXCL1 (KC)): inhibited
IC50 (TNFα; COPD patients, LPS): 17 nM
Emax at 0.1 µg/mL (TNFα; read-out: TNFα E max, sputum macrophage): 86%
IC50 (MIP1α; COPD patients, LPS): 7.5 nM
Emax at 0.1 µg/mL (MIP1α; read-out: MIP1α E max, sputum macrophage): 89%
